Assay: Blocker Index (BI), expert graders, malodorous fabric swatch treated with test material
From the text: Blocker materials suitable for use in consumer products of the present invention are chosen for their ability to decrease malodor, while not interfering with perception of a fragrance. Material selection is done by assigning two indices to a test sample material from two reference scales in order to rank odor strengths. The two reference scales are the Fragrance Fidelity Index (FFI) scale and the Blocker Index (BI) scale. The FFI ranks the ability of the test sample material to impart a perceivable odor which could cause interference when combined with another fragrance and the BI ranks the ability of the test sample material to reduce malodor perception. The two methods for assigning the indices to a test sample on the FFI and the BI reference scales are given below.
The first step in the method for assigning a BI to a test sample material on the BI reference scale is to create the BI reference swatches. […] Fabric swatches for this test are white knit polycotton (4 inch×4 inch) swatches from EMC ordered as PC 50/50. The supplier is instructed to strip the swatches first, stripping involves washing twice with a fragrance-free detergent and rinsing three times.
The BI scale contains one clean swatch with no malodor applied. […] These solutions are pipetted to the middle of the swatches. […] After drying for 30 minutes in a vented hood, the swatches are wrapped in aluminum foil to prevent odor contamination to the treated swatch. A clean untreated swatch is also included as the lowest anchor point of reference for malodor strength on the BI scale. The BI reference scale swatches should be used within 0.5 to 12 hours and discarded after 12 hours. The swatches are used as scale anchor points when graders evaluate a test sample(s) and are assigned a Blocker Index (BI) as show in Table 12.
The perfumer/expert grader is asked to rank order swatches according to a scale between 0 and 3.
The reference swatches represent the 0, 1, 2, and 3 BIs on the BI reference scale, Table 12. The expert grader should familiarizes him/herself with the strength of the odor on the BI reference swatches by sniffing each one starting at 0 (the lowest odor strength) and ending at 3 (the highest odor strength). This should be done prior to evaluating the swatch treated with the test material.
To evaluate the BI, the test material is applied to a malodorous swatch to determine how well the test material blocks the malodor. […] After drying the malodorous swatch a known concentration of test material solution, between 1 ppm and 100 ppm is pipetted onto the malodorous swatch. […] It is sometimes necessary to evaluate several levels of the test material between about 1 and about 100 ppm to determine the BI.
At least two perfumers/expert graders are used to assign the BI to the test sample. […] The test sample swatch is assigned a BI at or between numbers on the BI in table.

[1] = Conc 10 ppm test material on isovaleric acid swatch
[2] = Conc 50 ppm test material on isovaleric acid swatch

SMILES | BI [1] | BI [2] | BI (Conc 10 ppm test material on isovaleric acid swatch, listed as 1H-Indene-5-propanal, 2,3-dihydro-3 ,3-dimethyl-) | BI (Conc 50 ppm test material on isovaleric acid swatch, listed as 1H-Indene-5-propanal, 2,3-dihydro-3 ,3-dimethyl-)
CC1CCC2(C(C)C)CC(C)OC2C1 (stereo not drawn) [4,8-dimethyl-1-(methylethyl)-7-oxybiciclo[4.3.0]nonane] | 2.0 | 2.2 |  | 
CCC(=O)OC1CC2C3C=CCC3C1C2(C)C (stereo not drawn) [8,8-dimethyl-3a,4,5,6,7,7a-hexahydro-1H-4,7-methanoinden-6-yl propionate] | 1.5 | 2.2 |  | 
CC1(C)CCc2ccc(CCC=O)cc21 [Material 261, 3-(3,3-dimethyl-2,3-dihydro-1H-inden-5-yl)propanal] |  |  | 1.5 | 2.7
